Measured values published in patent US8624040B2, “Substituted hydroxamic acids and uses thereof” (Millennium Pharmaceuticals, Inc., priority 2009, dated 2014).

target: T1, purified human HDAC6 (Homo sapiens, UniProt Q9UBN7); assay: HDAC6 Enzyme Assay; type: biochemical; settings: enzyme inhibition, substrate Ac-Arg-Gly-Lys(Ac)-AMC, 1 hour at 30° C.
T1 construct: purchased BPS Bioscience 5006
T1 sequence (Q9UBN7 1-1215): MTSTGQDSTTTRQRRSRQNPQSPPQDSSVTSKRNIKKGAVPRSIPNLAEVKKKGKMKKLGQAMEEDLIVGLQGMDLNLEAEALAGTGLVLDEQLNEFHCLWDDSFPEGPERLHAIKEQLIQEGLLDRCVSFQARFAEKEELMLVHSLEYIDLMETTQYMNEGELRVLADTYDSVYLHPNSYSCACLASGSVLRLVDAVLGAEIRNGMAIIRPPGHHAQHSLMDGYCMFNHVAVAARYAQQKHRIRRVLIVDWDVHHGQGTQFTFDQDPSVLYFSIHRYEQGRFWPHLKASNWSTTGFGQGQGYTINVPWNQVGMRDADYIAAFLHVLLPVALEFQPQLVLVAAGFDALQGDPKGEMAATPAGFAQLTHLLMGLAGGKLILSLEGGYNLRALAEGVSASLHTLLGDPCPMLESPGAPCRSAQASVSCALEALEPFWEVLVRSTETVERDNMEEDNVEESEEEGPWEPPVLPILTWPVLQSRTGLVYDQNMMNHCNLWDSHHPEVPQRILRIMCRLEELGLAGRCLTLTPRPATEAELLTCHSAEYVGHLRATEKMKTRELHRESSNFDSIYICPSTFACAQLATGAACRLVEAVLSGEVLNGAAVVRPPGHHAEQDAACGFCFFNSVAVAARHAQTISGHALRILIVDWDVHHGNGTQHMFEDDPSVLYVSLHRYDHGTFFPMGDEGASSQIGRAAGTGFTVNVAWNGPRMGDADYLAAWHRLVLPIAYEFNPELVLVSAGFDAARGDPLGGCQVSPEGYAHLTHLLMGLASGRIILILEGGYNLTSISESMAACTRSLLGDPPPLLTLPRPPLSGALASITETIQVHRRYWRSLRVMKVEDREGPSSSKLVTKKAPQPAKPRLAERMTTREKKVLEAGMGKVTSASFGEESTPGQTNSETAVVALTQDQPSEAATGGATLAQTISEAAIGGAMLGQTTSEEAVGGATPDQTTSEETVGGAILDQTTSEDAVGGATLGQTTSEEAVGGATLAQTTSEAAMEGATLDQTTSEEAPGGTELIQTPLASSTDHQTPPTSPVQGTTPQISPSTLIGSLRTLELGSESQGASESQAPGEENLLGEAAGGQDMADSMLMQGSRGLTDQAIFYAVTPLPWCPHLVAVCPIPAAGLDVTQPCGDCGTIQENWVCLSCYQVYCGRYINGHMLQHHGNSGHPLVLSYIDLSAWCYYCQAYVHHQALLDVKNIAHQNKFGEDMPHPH
Experimental: To measure the inhibition of HDAC6 activity, purified human HDAC6 (BPS Bioscience; Cat. No. 5006) is incubated with substrate Ac-Arg-Gly-Lys(Ac)-AMC peptide (Bachem Biosciences; Cat. No. I-1925) for 1 hour at 30° C. in the presence of test compounds or vehicle DMSO control. The reaction is stopped with the HDAC inhibitor trichostatin A (Sigma; Cat. No. T8552) and the amount of Arg-Gly-Lys-AMC generated is quantitated by digestion with trypsin (Sigma; Cat. No. T1426) and subsequent measurement of the amount of AMC released using a fluorescent plate reader (Pherastar; BMG Technologies) set at Ex 340 nm and Em 460 nm. Concentration response curves are generated by calculating the fluorescence increase in test compound-treated samples relative to DMSO-treated controls, and enzyme inhibition (IC50) values are determined from those curves.

Compound	IC50
Cc1cc(C)c(NC(=O)N2CCc3cc(C(=O)NO)sc3C2)c(C)c1 [Compound 176, N^2-hydroxy-N^6-mesityl-4,7-dihydrothieno[2,3-c]pyridine-2,6(5H)-dicarboxamide]	< 50 nM
O=C(NO)c1cc2c(s1)CN(C(=O)c1cnn(-c3ccccc3)c1)CC2 [Compound 127, N-hydroxy-6-[(1-phenyl-1H-pyrazol-4-yl)carbonyl]-4,5,6,7-tetrahydrothieno[2,3-c]pyridine-2-carboxamide]	< 50 nM
NC(=O)CSc1ccsc1C(=O)N1CCc2cc(C(=O)NO)sc2C1 [Compound 56, 6-({3-[(2-amino-2-oxoethyl)sulfanyl]-2-thienyl}carlbonyl)-N-hydroxy-4,5,6,7-tetrahydrothieno[2,3-c]pyridine-2-carboxamide]	> 1000 nM
CC1(C)CN(C(=O)c2ccc3c(c2)OCCCO3)Cc2cc(C(=O)NO)sc21 [Compound 198, 5-(3,4-dihydro-2H-1,5-benzodioxepin-7-ylcarbonyl)-N-hydroxy-7,7-dimethyl-4,5,6,7-tetrahydrothieno[3,2-c]pyridine-2-carboxamide]	> 1000 nM
Cc1nc(C(F)(F)F)c(C(=O)N2CCc3cc(C(=O)NO)sc3C2)s1 [Compound 11, N-hydroxy-6-{[2-methyl-4-(trifluoromethyl)-1,3-thiazol-5-yl]carbonyl}-4,5,6,7-tetrahydrothieno[2,3-c]pyridine-2-carboxamide]	< 50 nM
CCC(Oc1ccccc1)C(=O)N1CCc2cc(C(=O)NO)sc2C1 (centres unmarked) [Compound 6, N-hydroxy-6-(2-phenoxybutanoyl)-4,5,6,7-tetrahydrothieno[2,3-c]pyridine-2-carboxamide]	< 50 nM
COc1ccc(CN2CCc3cc(C(=O)NO)sc3C2)cc1 [Compound 111, N-hydroxy-6-(4-methoxybenzyl)-4,5,6,7-tetrahydrothieno[2,3-c]pyridine-2-carboxamide]	> 1000 nM
CC(C)(C)c1ccc(CC(=O)N2CCc3cc(C(=O)NO)sc3C2)cc1 [Compound 188, 6-[(4-tert-butylphenyl)acetyl]-N-hydroxy-4,5,6,7-tetrahydrothieno[2,3-c]pyridine-2-carboxamide]	< 50 nM
Cc1noc(C)c1CC(=O)N1CCc2cc(C(=O)NO)sc2C1 [Compound 62, 6-(2-(3,5-dimethylisoxazol-4-yl)acetyl)-N-hydroxy-4,5,6,7-tetrahydrothieno[2,3-c]pyridine-2-carboxamide]	50 to 100 nM
Cc1c(C(=O)N2CCc3cc(C(=O)NO)sc3C2)cnn1-c1ccccc1 [Compound 187, N-hydroxy-6-[(5-methyl-1-phenyl-1H-pyrazol-4-yl)carbonyl]-4,5,6,7-tetrahydrothieno[2,3-c]pyridine-2-carboxamide]	< 50 nM
Cc1onc(-c2ccccc2)c1C(=O)N1CCc2cc(C(=O)NO)sc2C1 [Compound 107, N-hydroxy-6-[(5-methyl-3-phenylisoxazol-4-yl)carbonyl]-4,5,6,7-tetrahydrothieno[2,3-c]pyridine-2-carboxamide]	< 50 nM
Cc1c(C(=O)NO)sc2c1CN(C(=O)c1sc3ccccc3c1Cl)CC2 [Compound 221, 5-[(3-chloro-1-benzothien-2-yl)carbonyl]-N-hydroxy-3-methyl-4,5,6,7-tetrahydrothieno[3,2-c]pyridine-2-carboxamide]	50 to 100 nM
Cc1cccc(NC(=O)N2CCc3cc(C(=O)NO)sc3C2)c1 [Compound 80, N^2-hydroxy-N^6-(3-methylphenyl)-4,7-dihydrothieno[2,3-c]pyridine-2,6(5H)-dicarboxamide]	< 50 nM
O=C(NO)c1cc2c(s1)CN(C(=O)c1[nH]nc3c1CCCC3)CC2 [Compound 8, N-hydroxy-6-(4,5,6,7-tetrahydro-2H-indazol-3-ylcarbonyl)-4,5,6,7-tetrahydrothieno[2,3-c]pyridine-2-carboxamide]	< 50 nM
CC(=O)Nc1cc(NC(C)=O)cc(C(=O)N2CCc3cc(C(=O)NO)sc3C2)c1 [Compound 131, 6-[3,5-bis(acetylamino)benzoyl]-N-hydroxy-4,5,6,7-tetrahydrothieno[2,3-c]pyridine-2-carboxamide]	< 50 nM
CC1(C)CN(C(=O)c2ccc(Cl)cc2)Cc2cc(C(=O)NO)sc21 [Compound 218, 5-(4-chlorobenzoyl)-N-hydroxy-7,7-dimethyl-4,5,6,7-tetrahydrothieno[3,2-c]pyridine-2-carboxamide]	> 1000 nM
Cc1oc(-c2ccccc2)nc1CC(=O)N1CCc2cc(C(=O)NO)sc2C1 [Compound 65, N-hydroxy-6-[(5-methyl-2-phenyl-1,3-oxazol-4-yl)acetyl]-4,5,6,7-tetrahydrothieno[2,3-c]pyridine-2-carboxamide]	< 50 nM
O=C(NO)c1cc2c(s1)CN(C(=O)C(C1CCCCC1)C1CCCCC1)CC2 [Compound 10, 6-(dicyclohexylacetyl)-N-hydroxy-4,5,6,7-tetrahydrothieno[2,3-c]pyridine-2-carboxamide]	50 to 100 nM
Cc1oc(C(C)(C)C)cc1C(=O)N1CCc2cc(C(=O)NO)sc2C1 [Compound 67, 6-(5-tert-butyl-2-methyl-3-furoyl)-N-hydroxy-4,5,6,7-tetrahydrothieno[2,3-c]pyridine-2-carboxamide]	< 50 nM
CC(C)c1ccc(NC(=O)N2CCc3cc(C(=O)NO)sc3C2)cc1 [Compound 139, N^2-hydroxy-N^6-(4-isopropylphenyl)-4,7-dihydrothieno[2,3-c]pyridine-2,6(5H)-dicarboxamide]	< 50 nM
Cn1cccc1C(=O)N1CCc2cc(C(=O)NO)sc2C1 [Compound 116, N-hydroxy-6-[(1-methyl-1H-pyrrol-2-yl)carbonyl]-4,5,6,7-tetrahydrothieno[2,3-c]pyridine-2-carboxamide]	< 50 nM
Cc1c(C(=O)NO)sc2c1CN(C(=O)c1ccc(C(C)(C)C)cc1)CC2 [Compound 225, 5-(4-tert-butylbenzoyl)-N-hydroxy-3-methyl-4,5,6,7-tetrahydrothieno[3,2-c]pyridine-2-carboxamide]	50 to 100 nM
O=C(NO)c1cc2c(s1)CN(C(=O)C1CCCCC1)CC2 [Compound 2, 6-(cyclohexylcarbonyl)-N-hydroxy-4,5,6,7-tetrahydrothieno[2,3-c]pyridine-2-carboxamide]	< 50 nM
O=C(NO)c1cc2c(s1)CN(C(=O)c1ccc(C(F)(F)F)cc1)CC2 [Compound 171, N-hydroxy-6-(4-(trifluoromethyl)benzoyl)-4,5,6,7-tetrahydrothieno[2,3-c]pyridine-2-carboxamide]	< 50 nM
O=C(NO)c1cc2c(s1)CN(Cc1ccc3c(c1)OCCCO3)CC2 [Compound 22, 6-(3,4-dihydro-2H-1,5-benzodioxepin-7-ylmethyl)-N-hydroxy-4,5,6,7-tetrahydrothieno[2,3-c]pyridine-2-carboxamide]	< 50 nM
Cc1nc(-c2ccccn2)sc1C(=O)N1CCc2sc(C(=O)NO)c(C)c2C1 [Compound 199, N-hydroxy-3-methyl-5-[(4-methyl-2-pyridin-2-yl-1,3-thiazol-5-yl)carbonyl]-4,5,6,7-tetrahydrothieno[3,2-c]pyridine-2-carboxamide]	50 to 100 nM
O=C(NO)c1cc2c(s1)CN(C(=O)c1ccc3ncccc3c1)CC2 [Compound 95, N-hydroxy-6-(quinoline-6-carbonyl)-4,5,6,7-tetrahydrothieno[2,3-c]pyridine-2-carboxamide]	< 50 nM
O=C(NO)c1cc2c(s1)CN(C(=O)Nc1ccc(-c3ccccc3)s1)CC2 [Compound 40, N^2-hydroxy-N^6-(5-phenyl-2-thienyl)-4,7-dihydrothieno[2,3-c]pyridine-2,6(5H)-dicarboxamide]	< 50 nM
O=C(NO)c1cc2c(s1)CN(C(=O)c1cc(F)cc(F)c1)CC2 [Compound 140, 6-(3,5-difluorobenzoyl)-N-hydroxy-4,5,6,7-tetrahydrothieno[2,3-c]pyridine-2-carboxamide]	< 50 nM
